Where a name gives a salt, the structure may show the parent alone.
What was measured:
[1] = system: CD4 T cells, CD8 T cells, Th1 cells and Th17 cells; assay: Immune cell infiltration in EAE mice by flow cytometry; type: in vivo, C57BL/6 mice; settings: for CD8 T Cell (%) / CD4 T Cell (%): tissue not given; for CD8 T Cell (%): vehicle group 16.0; for CD4 T Cell (%): vehicle group 23.2; for Th17 Cell (%): vehicle group 12.4; for Th1 Cell (%): vehicle group 15.4
[2] = system: EAE mice (experimental autoimmune encephalomyelitis); assay: Efficacy in EAE animal model of multiple sclerosis: clinical score; type: in vivo, C57BL/6 mice; settings: for Clinical Score (Day 21): day 2-21, score 0 to 5, vehicle group 3.2
prostaglandin D2 (PGD2) = assay: Toxicity evaluation: flushing side effect by blood prostaglandin D2 concentration (ELISA); type: in vivo; settings: C57BL6 male mice, 165.6 mg/kg vs DMF 60 mg/kg, 5 minutes after administration
Method: The flushing phenomenon was confirmed through analysis of the concentration of prostaglandin D2 (PGD2) in the blood. PGD2 is a bio-derived substance closely related to the flushing phenomenon, and the concentration analysis of PGD2 in the blood is known as a standard test method for predicting the side effects of drugs. (The journal of pharmacology and experimental therapeutics, 2008, 327(3), 665.) The test method was conducted by dividing C57BL6 male mice into three groups as test animals. […] PGD2 present in the collected blood was measured using an Elisa kit (#CSB-E14022m, CUSABIO).

[3] = cited from earlier work
[4] = RRMS patients, DRF 462 mg twice daily for 5 weeks; cited from earlier work
[5] = EVOLVE-MS-1 phase 3 clinical program

Which results are given for `COC(=O)/C=C/C(=O)OC` [Dimethyl fumarate]?
CD8 T Cell (%) ([1]; DMF 30 mpk): 8.8%; CD4 T Cell (%) ([1]; DMF 30 mpk): 13.1%; Th17 Cell (%) ([1]; DMF 30 mpk): 10.1%; Th1 Cell (%) ([1]; DMF 30 mpk): 10.2%; CD8 T Cell (%) ([1]; DMF 60 mpk): 8.5%; CD4 T Cell (%) ([1]; DMF 60 mpk): 13.8%; Th17 Cell (%) ([1]; DMF 60 mpk): 6.3%; Th1 Cell (%) ([1]; DMF 60 mpk): 7.9%; Clinical Score (Day 21) ([2]; DMF 30 mpk oral twice a day): 2.3; Clinical Score (Day 21) ([2]; DMF 60 mpk oral twice a day): 1.3; Severity of the disease (clinical score) vs negative control ([2]; low (G3, 30 mg/kg) and high (G4, 60 mg/kg) dose): significantly reduced the severity of the disease

With `COC(=O)/C=C/C(=O)Oc1ccc(COC(=O)c2ccccc2OC(C)=O)cc1` [Example 1, 4-((acetoxybenzoyloxy)methyl)phenyl Methyl Fumarate] as the molecule, how does the “Infiltration rate of CD4 and CD8 T cells in the lymph nodes compared to disease-induced group (G2)” value ([1]; FIG. 1, low-dose (G5) and high-dose (G6)) read?
The value was “significant decrease”.

What about the “Infiltration rate of CD4 and CD8 T cells in the central nervous system compared to disease-induced group (G2)” value ([1]; FIG. 2, low-dose (G5) and high-dose (G6)) of the same molecule?
Its value is “significant decrease”.

What about the “Infiltration rate of Th1 and Th17 cells in the lymph nodes compared to disease-induced group (G2)” value ([1]; FIG. 3, low-dose (G5) and high-dose (G6)) of the same molecule?
Its value is “decrease”.

And the “CD8 T Cell (%)” value ([1]; chemical formula 1 82.8 mpk)?
The value was 7.8%.

And the “CD4 T Cell (%)” value ([1]; chemical formula 1 82.8 mpk)?
Its value is 11.2%.

And the “Th17 Cell (%)” value ([1]; chemical formula 1 82.8 mpk)?
Its value is 8.8%.

What about the “Th1 Cell (%)” value ([1]; chemical formula 1 82.8 mpk) of the same molecule?
The value was 8.8%.

What about the “CD8 T Cell (%)” value ([1]; chemical formula 1 165.6 mpk) of the same molecule?
The value was 4.7%.

And the “CD4 T Cell (%)” value ([1]; chemical formula 1 165.6 mpk)?
The value was 6.5%.

And the “Th17 Cell (%)” value ([1]; chemical formula 1 165.6 mpk)?
The value was 7.5%.

What about the “Th1 Cell (%)” value ([1]; chemical formula 1 165.6 mpk) of the same molecule?
The value was 6.4%.

And the “Clinical Score (Day 21)” value ([2]; chemical formula 1 82.8 mpk oral twice a day)?
Its value is 2.0.

What about the “Clinical Score (Day 21)” value ([2]; chemical formula 1 165.6 mpk oral twice a day) of the same molecule?
The value was 1.5.

And the Clinical score improvement ([2]; low dose (G5, 82.8 mg/kg) and high dose (G6, 165.6 mg/kg))?
Its Clinical score improvement is “significant clinical score improvement effects”.

And the “Decrease of blood PGD2 compared to the group administered with dimethyl fumarate” value (prostaglandin D2 (PGD2))?
Its value is 76.6%.

Which “Subjects who discontinued administration” value [3, 5] does the source give for `COC(=O)/C=C/C(=O)OCCN1C(=O)CCC1=O` [diroximel fumarate] here?
Its value is 14.9%.

And the “Subjects who discontinued due to drug-induced side effects” value [3, 5]?
The value was 6.3%.

And the “Incidence of gastrointestinal side effects (GI TEAEs)” value ([3]; all patients administered DRF, phase 3 clinical trials)?
Its value is “more than 30%”.

And the “Decrease of incidence of gastrointestinal side effects compared to DMF group” value ([3]; phase 3 clinical trials, vs the 40% incidence with DMF)?
Its value is 10%.

And the “Diarrhea, frequency reported” value [4]?
The value was 15.4%.

What about the “Flushing, frequency reported” value [4] of the same molecule?
Its value is 32.8%.

What about the “Nausea, frequency reported” value [4] of the same molecule?
Its value is 14.6%.

— patent publication US20260041661A1, “THREE-COMPONENT PRODRUG, PHARMACEUTICAL COMPOSITION THEREOF, AND MEDICAL USE THEREOF” (J2H BIOTECH INC., priority 2022, published 2026)
